Measurements published in patent publication US12384769B2, “Heteroaryl-substituted aminoalkyl azole compounds as pesticides” (Elanco Animal Health GmbH, priority 2019, dated 2025).

How the values were obtained:
Type in all cases: in vivo
Diabrotica balteata = Diabrotica balteata spray test; details: 168 h, wheat seeds, after 7 days, read-out: activity (efficacy, seedlings grown); for pest or weed control at 160 µg/disc, 500 g/ha: 500 g/ha (=160 μg/well)
Description: Diabrotica balteata—Spray Test
Solvent: 78.0 parts by weight of acetone • • 1.5 parts by weight of dimethylformamide
(§1) Emulsifier: alkylarylpolyglycol ether
(§2) To produce a suitable preparation of active compound, 1 part by weight of active compound is mixed with the stated amount of solvent, and the concentrate is diluted with water, containing an emulsifier concentration of 1000 ppm, to the desired concentration. Further test concentrations are prepared by dilution with emulsifier containing water.
Soaked wheat seeds (Triticum aestivum) are placed in a multiple well plate filled with agar and some water and are incubated for 1 day to germinate (5 seeds per well). The germinated wheat seeds are sprayed with a test solution containing the desired concentration of the active ingredient. Afterwards each unit is infected with 10-20 larvae of the banded cucumber beetle (Diabrotica balteata).
After 7 days efficacy in % is determined. 100% means all the seedlings have grown up like in the untreated, uninfected control; 0% means none of the seedlings have grown.

Spodoptera frugiperda = Spodoptera frugiperda spray test; details: in Zea mays, 168 h, read-out: activity (mortality)
Description: Spodoptera frugiperda—Spray Test
Solvent: 78.0 parts by weight acetone • 1.5 parts by weight dimethylformamide
as §1
as §2, with “solvents” for “solvent,”, “and” for “and the concentrate”
Maize (Zea mays) leaf sections are sprayed with a preparation of the active ingredient of the desired concentration. Once dry, the leaf sections are infested with fall armyworm larvae (Spodoptera frugiperda).
After 7 days mortality in % is determined. 100% means all caterpillars have been killed and 0% means none of the caterpillars have been killed.

Boophilus microplus = Boophilus microplus injection test (BOOPMI Injection); details: Rhipicephalus microplus, 168 h, injection into adult engorged female ticks, egg deposition after 7 days, read-out: activity (efficacy, infertile eggs); for pest or weed control at 0.004 mg: 4 μg/animal; for pest or weed control at 0.02 mg: 20 μg/animal
Description: Boophilus microplus—Injection Test (BOOPMI Injection)
(§3) Solvent: dimethyl sulfoxide
To produce a suitable preparation of active compound, 10 mg of active compound are dissolved in 0.5 mL solvent, and the concentrate is diluted with solvent to the desired concentration.
Five adult engorged female ticks (Boophilus microplus) are injected with 1 μL compound solution into the abdomen. The ticks are transferred into replica plates and incubated in a climate chamber.
After 7 days egg deposition of fertile eggs is monitored. Eggs where fertility is not visible are stored in a climate chamber till hatching after about 42 days. An efficacy of 100% means all eggs are infertile; 0% means all eggs are fertile.

Ctenocephalides felis = Ctenocephalides felis oral test (CTECFE); details: 48 h, 100 ppm in cattle blood, after 2 days
Description: Ctenocephalides felis—Oral Test (CTECFE)
as §3
To produce a suitable preparation of active compound, 10 mg of active compound are dissolved in 0.5 ml solvent, and the concentrate is diluted with cattle blood to the desired concentration.
Approximately 20 adult unfed cat fleas (Ctenocephalides felis) are placed in flea chambers. The blood chamber, sealed with parafilm on the bottom, are filled with cattle blood supplied with compound solution and placed on the gauze covered top of the flea chamber, so that the fleas are able to suck the blood. The blood chamber is heated to 37° C. whereas the flea chamber is kept at room temperature.
After 2 days mortality in % is determined. 100% means all the fleas have been killed; 0% means none of the fleas have been killed.

[1] = test system: Rhipicephalus microplus (strain Parkhurst, resistant against synthetic pyrethroids); test: Rhipicephalus microplus in-vitro contact test, larval cattle tick (BOOPMI Contact); details: 5 μg/cm^2 (=500 g/ha), after 48 hours, read-out: activity (efficacy, larvae dead or moribund)
Description: Rhipicephalus microplus—in-Vitro Contact Tests Larval Cattle Tick (Strain Parkhurst, Resistant Against Synthetic Pyrethroids) (BOOPMI Contact)
9 mg compound is solved in 1 ml acetone and diluted with acetone to the desired concentration. 250 μL of the test solution is filled in 25 ml glass test tubes and homogeneously distributed on the inner walls by rotation and tilting on a shaking device (2 h at 30 rpm). With a compound concentration of 900 ppm, an inner surface of 44.7 cm^2 and a homogeneous distribution, a dose of 5 μg/cm^2 is achieved.
After the solvent has evaporated, each test tube is filled with 20-50 cattle tick larvae (Rhipicephalus microplus), closed with a perforated lid and incubated in a horizontal position at 85% relative humidity and 27° C. in an incubator. After 48 hours efficacy is determined. The larvae are patted on the ground of the tubes and negative geotactic behaviour is recorded.
An efficacy of 100% means all larvae are dead or moribund; 0% means no larvae are dead or moribund.

## CCN(CC)C(=O)c1ccc(-n2ncnc2[C@H](C)Nc2nc3cc(C(F)(F)F)c(Cl)cc3o2)nc1 [Example I-102, 6-{5-[(1S)-1-{[6-chloro-5-(trifluoromethyl)-1,3-benzoxazol-2-yl]amino}ethyl]-1H-1,2,4-triazol-1-yl}-N,N-diethylpyridine-3-carboxamide]
Diabrotica balteata
  pest or weed control at 100 g/ha: 100%
Spodoptera frugiperda
  mortality at 100 g/ha: 100%

## C[C@H](Nc1nc2cc(C(C)(C)C)cc(Cl)c2o1)c1ncnn1-c1ccc(C#N)cn1 [Example I-077, 6-(5-[(1S)-1-[(5-tert-Butyl-7-chlor-1,3-benzoxazol-2-yl)amino]ethyl}-1H-1,2,4-triazol-1-yl)nicotinonitril]
Boophilus microplus
  pest or weed control at 0.004 mg: 100%
  pest or weed control at 0.02 mg: 100%

## C[C@H](Nc1nc2cc(C(F)(F)F)cc(C(F)(F)F)c2o1)c1ncnn1-c1ccc(C(F)(F)F)cn1 [Example I-030]
Boophilus microplus
  pest or weed control at 0.004 mg: 80%
  pest or weed control at 0.02 mg: 100%

## Cc1nc([C@H](C)Nc2nc3cc(Cl)cc(C(F)(F)F)c3o2)n(-c2ncccn2)n1 [Example I-089, 5-Chlor-N-{(1S)-1-[3-methyl-1-(pyrimidin-2-yl)-1H-1,2,4-triazol-5-yl]ethyl}-7-(trifluormethyl)-1,3-benzoxazol-2-amin]
Boophilus microplus
  pest or weed control at 0.004 mg: 100%
  pest or weed control at 0.02 mg: 100%

## CC(Nc1nc2cc(C(F)(F)F)cc(Cl)c2o1)c1nc(C(F)(F)F)nn1-c1ncccn1 (racemic) [Example I-048, 7-Chlor-N-{(rac)-1-[1-(pyrimidin-2-yl)-3-(trifluormethyl)-1H-1,2,4-triazol-5-yl]ethyl}-5-(trifluormethyl)-1,3-benzoxazol-2-amin]
Ctenocephalides felis
  mortality at 100 ppm: 100%

## Cc1csc(-n2ncnc2[C@H](C)Nc2nc3cc(C(F)(F)F)cc(Cl)c3o2)n1 [Example I-038, 7-chloro-N-{(1S)-1-[1-(4-methyl-1,3-thiazol-2-yl)-1H-1,2,4-triazol-5-yl]ethyl}-5-(trifluoromethyl)-1,3-benzoxazol-2-amine]
Boophilus microplus
  pest or weed control at 0.004 mg: 80%

## COc1nc([C@H](C)Nc2nc3cc(C(F)(F)F)c(Cl)cc3o2)n(-c2ccc(C#N)cn2)n1 [Example I-101, 6-{5-[(1S)-1-{[6-chloro-5-(trifluoromethyl)-1,3-benzoxazol-2-yl]amino}ethyl]-3-methoxy-1H-1,2,4-triazol-1-yl}pyridine-3-carbonitrile]
Diabrotica balteata
  pest or weed control at 100 g/ha: 100%

## C[C@H](Nc1nc2cc(C(F)(F)F)c(Cl)cc2o1)c1ncnn1-c1ccc(C(=O)N2CCCC2)cn1 [Example I-103, (6-{5-[(1S)-1-{[6-chloro-5-(trifluroomethyl)-1,3-benzoxazol-2-yl]amino}ethyl]-1H-1,2,4-triazol-1-yl}pyridin-3-yl)(pyrrolidin-1-yl)methanone]
Diabrotica balteata
  pest or weed control at 100 g/ha: 100%

## Cc1nc([C@H](C)Nc2nc3cc(C(F)(F)F)cc(C(F)(F)F)c3o2)n(-c2ccc(C#N)cn2)n1 [Example I-021]
[1]
  pest or weed control at 5 µg/cm2: 80%
Diabrotica balteata
  pest or weed control at 100 g/ha: 100%
  pest or weed control at 160 µg/disc, 500 g/ha: 100%
Boophilus microplus
  pest or weed control at 0.004 mg: 100%
  pest or weed control at 0.02 mg: 100%

## C[C@H](Nc1nc2cc(C(F)(F)F)cc(Cl)c2o1)c1ncnn1-c1ccc(C(F)(F)F)cn1 [Example I-027]
[1]
  pest or weed control at 5 µg/cm2: 100%
Spodoptera frugiperda
  mortality at 500 g/ha: 100%
Boophilus microplus
  pest or weed control at 0.004 mg: 100%
  pest or weed control at 0.02 mg: 100%

## Cc1nc([C@H](C)Nc2nc3cc(C(F)(F)F)cc(C(F)(F)F)c3o2)n(-c2ccc(C(F)(F)F)cn2)n1 [Example I-029]
[1]
  pest or weed control at 5 µg/cm2: 100%

## Cc1nc([C@H](C)Nc2nc3cc(C(F)(F)F)cc(Cl)c3o2)n(-c2ccc(C#N)cn2)n1 [Example I-020]
[1]
  pest or weed control at 5 µg/cm2: 100%

## COc1ccnc(-n2ncnc2[C@H](C)Nc2nc3cc(C(F)(F)F)cc(Cl)c3o2)n1 [Example I-051, 7-Chlor-N-{(1S)-1-[1-(4-methoxypyrimidin-2-yl)-1H-1,2,4-triazol-5-yl]ethyl}-5-(trifluormethyl)-1,3-benzoxaozl-2-amin]
[1]
  pest or weed control at 5 µg/cm2: 80%
Boophilus microplus
  pest or weed control at 0.02 mg: 100%

## C[C@H](Nc1nc2cc(C(F)(F)F)cc(Br)c2o1)c1ncnn1-c1ccc(Cl)cn1 [Example I-054, 7-Brom-N-{(1S)-1-[1-(5-chlorpyridin-2-yl)-1H-1,2,4-triazol-5-yl]ethyl}-5-(trifluormethyl)-1,3-benzoxazol-2-amin]
[1]
  pest or weed control at 5 µg/cm2: 100%
Spodoptera frugiperda
  mortality at 500 g/ha: 100%
Boophilus microplus
  pest or weed control at 0.02 mg: 100%

## CC(C)c1cc(Cl)c2oc(N[C@@H](C)c3ncnn3-c3ncc(Br)cn3)nc2c1 [Example I-068, N-{(1S)-1-[1-(5-Brompyrimidin-2-yl)-1H-1,2,4-triazol-5-yl]ethyl}-7-chlor-5-isopropyl-1,3-benzoxazol-2-amin]
[1]
  pest or weed control at 5 µg/cm2: 80%
Boophilus microplus
  pest or weed control at 0.004 mg: 100%
  pest or weed control at 0.02 mg: 100%

## C[C@H](Nc1nc2cc(C(F)(F)F)cc(C(F)(F)F)c2o1)c1ncnn1-c1ccc(Cl)cn1 [Example I-032]
Spodoptera frugiperda
  mortality at 500 g/ha: 100%
Boophilus microplus
  pest or weed control at 0.02 mg: 100%

## COc1cnc(-n2ncnc2[C@H](C)Nc2nc3cc(C(F)(F)F)cc(Cl)c3o2)nc1 [Example I-043, 7-Chlor-N-{(1S)-1-[1-(5-methoxypyrimidin-2-yl)-1H-1,2,4-triazol-5-yl]ethyl}-5-(trifluormethyl)-1,3-benzoxazol-2-amin]
Spodoptera frugiperda
  mortality at 100 g/ha: 100%

## CC(C)c1cc(Cl)c2oc(N[C@@H](C)c3ncnn3-c3cc(C#N)ccn3)nc2c1 [Example I-064, 2-(5-{(1S)-1-[(7-Chlor-5-isopropyl-1,3-benzoxazol-2-yl)amino]ethyl}-1H-1,2,4-triazol-1-yl)isonicotinonitril]
Diabrotica balteata
  pest or weed control at 100 g/ha: 100%
  pest or weed control at 160 µg/disc, 500 g/ha: 100%
Boophilus microplus
  pest or weed control at 0.02 mg: 80%

## C[C@H](Nc1nc2cc(C(F)(F)F)cc(Cl)c2o1)c1ncnn1-c1ccc(C#N)cn1 [Example I-018]
[1]
  pest or weed control at 5 µg/cm2: 80%
Diabrotica balteata
  pest or weed control at 100 g/ha: 100%
  pest or weed control at 160 µg/disc, 500 g/ha: 100%
Spodoptera frugiperda
  mortality at 100 g/ha: 100%
  mortality at 500 g/ha: 100%
Boophilus microplus
  pest or weed control at 0.004 mg: 100%
  pest or weed control at 0.02 mg: 100%

## C[C@H](Nc1nc2cc(C(F)(F)F)ccc2o1)c1ncnn1-c1ncccn1 [Example I-003]
Diabrotica balteata
  pest or weed control at 160 µg/disc, 500 g/ha: 80%

## C[C@H](Nc1nc2cc(C(F)(F)F)cc(Cl)c2o1)c1ncnn1-c1ccc(Cl)cn1 [Example I-015]
[1]
  pest or weed control at 5 µg/cm2: 100%
Diabrotica balteata
  pest or weed control at 160 µg/disc, 500 g/ha: 100%
Spodoptera frugiperda
  mortality at 500 g/ha: 100%
Boophilus microplus
  pest or weed control at 0.004 mg: 80%
  pest or weed control at 0.02 mg: 100%

## C[C@H](Nc1nc2cc(S(=O)(=O)c3ccccc3)cc(Cl)c2o1)c1ncnn1-c1ncccn1 [Example I-080, 7-Chlor-5-(phenylsulfonyl)-N-{(1S)-1-[1-(pyrimidin-2-yl)-1H-1,2,4-triazol-5-yl]ethyl}-1,3-benzoxazol-2-amin]
[1]
  pest or weed control at 5 µg/cm2: 100%

## CC(C)c1cc(Cl)c2oc(N[C@@H](C)c3ncnn3-c3ncccn3)nc2c1 [Example I-063, 7-Chlor-5-isopropyl-N-{(1S)-1-[1-(pyrimidin-2-yl)-1H-1,2,4-triazol-5-yl]ethyl}-1,3-benzoxazol-2-amin]
Diabrotica balteata
  pest or weed control at 100 g/ha: 100%
  pest or weed control at 160 µg/disc, 500 g/ha: 80%
Boophilus microplus
  pest or weed control at 0.004 mg: 80%
  pest or weed control at 0.02 mg: 100%
